Measurements from US9157122B2, “Method of diagnosing cancer and reagents therefor” (Garvan Institute of Medical Research, priority 2004, dated 2015).

Experiments:
Format in all cases: cell-based, human
[1] = test system: HCT116 cells; assay: Real-time RT-PCR gene expression in HCT116 cells treated with 5-Aza-2′-deoxycytidine and/or TSA; details: for expression of CpG island-associated genes that are unmethylated and transcriptionally repressed: DDX18, INSIG2, PTPN, RALBB, TSN, FIG. 16g-k; for expression of genes hypermethylated in HCT116 (EN1, SCTR and INHBB): genes linked to 2q14.2, FIG. 16b, c and d
Protocol: RNA was extracted using Trizol reagent (Invitrogen) according to the manufacturer's protocol. cDNA was reverse transcribed from 2 μg of total RNA using SuperScriptTM III RNase H^- Reverse Transcriptase (Invitrogen Life technologies), according to the manufacturer's instructions. The reaction was primed with 200 ng of random hexamers (Roche). The reverse transcription reaction was then diluted 1:20 with sterile H2O before addition to a PCR reaction. […] The primers used for amplification comprise a sequence set forth in any one of SEQ ID Nos 119 to 218. Primers were used in a combination described herein. To control for the amount and integrity of the RNA, the Human 18S ribosomal RNA (rRNA) kit (P/N 4308329) (Applied Biosystems), containing the rRNA forward and reverse primers and rRNA VICTM probe, was used. 5 μl of the reverse transcription was used in a 20 μl reaction in TaqMan Universal PCR Master Mix (P/N 4304437) with 1 μl of the 20× Human 18S rRNA mix. The reactions were performed in triplicate and the standard deviation was calculated using the Comparative method (ABI PRISM 7700 Sequence Detection system User Bulletin #2, […] 4303859). The cycle number corresponding to where the measured fluorescence crosses a threshold is […] to the amount of starting material. The mean expression levels are represented as the ratio between each gene and 18S rRNA expression. The colon cancer cell line HCT116 was cultured in D-MEM/F12 (Gibco/BRL) medium supplemented with MEM sodium pyruvate and L-Glutamine and 10% fetal calf serum at 37° C. with 10% CO2. Cells were split 1:8 every 3-4 days. Cells were split 12 h to 24 h prior to treatment. 5-Aza-2'-deoxycytidine (5-aza-dC)(Sigma) was prepared as a 1 mg/ml stock in sterile water, filter-sterilized and frozen as aliquots. 100 mm tissue culture dishes were seeded with 0.5×10^6 cells and following 24 h incubation the cells were treated with 0.5 μm 5-aza-dC. The cells were treated for 24 hours after which the medium was replaced with fresh medium and the cells cultured for a further 48 h before harvesting. Cells were treated with trichostatin A (TSA) (Sigma) at 25, 50 and 100 nM for 24 h. Alternatively, an identical volume of ethanol was used as a control. For co-treatment of cells with 5-aza-dC and TSA, 5-aza-dC was added initially for 24 h, after which it was removed and TSA was added for a further 24 h. The concentrations and the treatment conditions used were chosen based on preliminary studies showing optimal reactivation of gene expression. Expression levels of the genes DDX18, INSIG2, EN1, MARCO, PTPN4, RALBB, GLI2 and TSN was determined essentially as described above.

[2] = test system: HCT116 cells; assay: ChIP assay with anti-dimethyl-histone H3(lys9) antibody in treated HCT116 cells, real-time PCR; details: relative to untreated cells; for methylation of H3-K9 histones associated with the p21 CpG island promoter region: FIG. 17a; for methylation of H3-K9 histones associated with the unmethylated genes (DDX18, INSIG2, PTPN, RALBB): FIG. 17g-k; for binding of methylated K9-H3 histones to DNA methylated genes (EN1, SCTR, INHBB, GLI2, MARCO): FIGS. 17b-f
Protocol: ChIP assays were carried out according to the manufacturer (Upstate Biotechnology) and described in Stirzaker et al., Cancer Res 64: 3871-3877, 2004. Briefly, 1×10^6 HCT116 cells, in a 10 cm dish, were fixed by adding formaldehyde at a final concentration of 1% and incubating for 10 minutes at 37° C. The cells were washed twice with ice cold PBS containing protease inhibitors (1 mM phenylmethylsulfonyl fluoride (PMSF), 1 μg/ml aprotinin and 1 μg/ml pepstatin A), harvested and treated with SDS lysis buffer for 10 min on ice. The resulting lysates were sonicated to shear the DNA to fragment lengths of 200 to 500 basepairs. […] No antibody controls were also included for each ChIP assay and no precipitation was observed. The antibody/protein complexes were collected by salmon sperm DNA/protein A agarose slurry and washed several times following the manufacturer's instructions. The immune complexes were eluted with 1% SDS and 0.1 M NaHCO3 and the crosslinks were reversed by incubation at 65° C. for 4 hours in the presence of 200 mM NaCl. The samples were treated with proteinase K for 1 hour and the DNA was purified by phenol/chloroform extraction, ethanol precipitation and resuspended in 30 μl H2O. The amount of target that was immunoprecipitated, was measured by Real-Time PCR using the ABI Prism 7900HT Sequence Detection System. Amplification primers are set forth SEQ ID NOs: 235 to 256. PCR reactions were set up according to the SDS compendium (ver 2.1) for the 7900HT Applied Biosystems Sequence Detector as described previously (Stirzaker, supra). Either immunoprecipitated DNA, no-antibody control or input chromatin were used in each PCR and the PCRs were set up in triplicate. Standard deviation was calculated using the Comparative method (ABI PRISM 7700 Sequence Detection System User Bulletin #2, […] 4303859). For each sample an average CT value was obtained for immunoprecipitated material and for the input chromatin. The difference in CT values (delta CT) reflects the difference in the amount of material that was immunoprecipitated relative to the amount of input (ABI PRISM 7700 Sequence Detection system User Bulletin #2, […] 4303859). To determine if chromatin modification was associated with the suppression of all the genes across the entire band in cancer, regardless of the DNA methylation status, ChIP (chromatin immunoprecipitation) analysis and real-time PCR was performed.

[3] = test system: HCT116 cells; assay: ChIP assay with anti-acetylated histone antibody in treated HCT116 cells, real-time PCR; details: relative to untreated cells, FIG. 18
Protocol: ChIP assays were carried out according to the manufacturer (Upstate Biotechnology) and described in Stirzaker et al., Cancer Res 64: 3871-3877, 2004. Briefly, ˜1×10^6 HCT116 cells, in a 10 cm dish, were fixed by adding formaldehyde at a final concentration of 1% and incubating for 10 minutes at 37° C. The cells were washed twice with ice cold PBS containing protease inhibitors (1 mM phenylmethylsulfonyl fluoride (PMSF), 1 μg/ml aprotinin and 1 μg/ml pepstatin A), harvested and treated with SDS lysis buffer for 10 min on ice. The resulting lysates were sonicated to shear the DNA to fragment lengths of 200 to 500 basepairs. The complexes were immunoprecipitated with an antibody specific for dimethyl-histone H3(lys9), Upstate Biotechnology (#07-212) or acetylated histone. […]
The amount of target that was immunoprecipitated, was measured by Real-Time PCR using the ABI Prism 7900HT Sequence Detection System. […] Standard deviation was calculated using the Comparative method (ABI PRISM 7700 Sequence Detection System User Bulletin #2, 1997 (P/N 4303859). For each sample an average CT value was obtained for immunoprecipitated material and for the input chromatin. The difference in CT values (delta CT) reflects the difference in the amount of material that was immunoprecipitated relative to the amount of input (ABI PRISM 7700 Sequence Detection system User Bulletin #2, 1997 (P/N 4303859).

Nc1ncn([C@H]2C[C@H](O)[C@@H](CO)O2)c(=O)n1 [5AzaC, 5-Aza-2′-deoxycytidine]
expression of CpG island-associated genes that are unmethylated and transcriptionally repressed [1]: some reactivation | expression of genes hypermethylated in HCT116 (EN1, SCTR and INHBB) [1]: small increases of expression | methylation of H3-K9 histones associated with the p21 CpG island promoter region [2]: Demethylation of the H3-K9 histones also occurred | methylation of H3-K9 histones associated with the unmethylated genes (DDX18, INSIG2, PTPN, RALBB) [2]: resulted in demethylation | binding of methylated K9-H3 histones to DNA methylated genes (EN1, SCTR, INHBB, GLI2, MARCO) [2]: binding was reduced

CC(/C=C/C(=O)NO)=C\[C@@H](C)C(=O)c1ccc(N(C)C)cc1 [TSA, trichostatin A]
p21 expression activated (control gene) ([1]; 0.5 μm 5-aza-dC 24 h, TSA 24 h, co-treatment 5-aza-dC 24 h then TSA 24 h, normalised to 18S RNA, FIG. 16a): more than 3 fold | expression of CpG island-associated genes that are unmethylated and transcriptionally repressed [1]: some reactivation | expression of genes hypermethylated in HCT116 (EN1, SCTR and INHBB) [1]: small increases of expression | methylation of H3-K9 histones associated with the p21 CpG island promoter region [2]: substantial demethylation | methylation of H3-K9 histones associated with the unmethylated genes (DDX18, INSIG2, PTPN, RALBB) [2]: substantial demethylation | binding of methylated K9-H3 histones to DNA methylated genes (EN1, SCTR, INHBB, GLI2, MARCO) [2]: binding was reduced | H3-K9 acetylation for genes hypermethylated in HCT116 cells [3]: Increased H3-K9 acetylation
